Drawing on US20230312605A1, “PYRROLO[2,1-F][1,2,4]TRIAZINES AND PREPARATION AND USES THEREOF” (BioSplice Therapeutics, Inc., priority 2021, published 2023), this text covers EC50 for 30 compounds.

The target of this assay is recombinant DYRK1A kinase (Homo sapiens (Human), UniProt Q13627). As to the kind of experiment: DYRK1A kinase assay (Ser/Thr 18 peptide Z-lyte FRET assay). The settings on record: recombinant DYRK1A 0.25 µg/mL, ATP 15 µM, Ser/Thr peptide 18 4 µM, one hour at room temperature; table head prints EC50, method says IC50. It counts as biochemical. In outline:
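Recombinant human DYRK1A (0.25 µg/mL) with 15 µM ATP and 4 µM Ser/Thr 18 peptide was incubated 1 h at room temperature with compound (11-point, 10 µM top), in duplicate. Z-lyte FRET read-out (coumarin/fluorescein emission ratio) was converted to percent phosphorylation; IC50 from non-linear regression.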

pEC50: −log10 of the molar value.

What is called pEC50 is −log10 of the EC50, conventionally taken in molar units. As for `COCCO[C@H]1C[C@@H](Nc2ncc3c(-c4cnc5nccn5c4)ccn3n2)C1` [Compound 244, 5-(Imidazo[1,2-a]pyrimidin-6-yl)-N-(cis-3-(2-methoxyethoxy)cyclobutyl) pyrrolo[2,1-f] [1,2,4]triazin-2-amine], the pEC50 is 8.30.

With `c1cn2cc(-c3ccn4nc(NC5CCOCC5)ncc34)ccc2n1` [Compound 67, 5-(Imidazo[1,2-a]pyridin-6-yl)-N-(tetrahydro-2H-pyran-4-yl)pyrrolo[2,1-f] [1,2,4]triazin-2-amine], the pEC50 was 7.40.

As to `Cc1nc2ccc(-c3ccn4nc(NCC(C)(C)O)ncc34)nc2n1CC(F)F` [Compound 1833, 1-((5-(3-(2,2-Difluoroethyl)-2-methyl-3H-imidazo[4,5-b]pyridin-5-yl)pyrrolo[2,1-f][1,2,4]triazin-2-yl)amino)-2-methylpropan-2-ol], the pEC50 is 8.10.

With `Cc1nc2ccc(-c3ccn4nc(NC[C@@H](C)O)ncc34)nc2n1CC(F)F` [Compound 1831, (R)-1-((5-(3-(2,2-Difluoroethyl)-2-methyl-3H-imidazo[4,5-b]pyridin-5-yl)pyrrolo [2,1-f] [1,2,4]triazin-2-yl)amino)propan-2-ol], the pEC50 was 8.15.

For `Cc1nc2ncc(-c3ccn4nc(N[C@H]5CC[C@@H](O)CC5)ncc34)cc2n1CC(F)F` [Compound 683, cis-4-((5-(1-(2,2-Difluoroethyl)-2-methyl-1H-imidazo[4,5-b]pyridin-6-yl)pyrrolo[2,1-f][1,2,4]triazin-2-yl)amino)cyclohexan-1-ol], the pEC50 is 8.22.

For `Cc1nc2ncc(-c3ccn4nc(NC5CCC(F)(F)CC5)ncc34)cc2n1Cc1nnc([C@@H](C)F)o1` [Compound 1915, (R)-N-(4,4-Difluorocyclohexyl)-5-(1-((5-(1-fluoroethyl)-1,3,4-oxadiazol-2-yl)methyl)-2-methyl-1H-imidazo[4,5-b]pyridin-6-yl)pyrrolo[2,1-f][1,2,4]triazin-2-amine], the pEC50 is 8.05.

Take `Cc1nc2ccc(-c3ccn4nc(N[C@H]5C[C@](C)(O)C5)ncc34)nc2n1CC(F)F` [Compound 1835, trans-3-((5-(3-(2,2-Difluoroethyl)-2-methyl-3H-imidazo[4,5-b]pyridin-5-yl)pyrrolo[2,1-f][1,2,4]triazin-2-yl)amino)-1-methylcyclobutan-1-ol]: the pEC50 was 8.52.

On to `CC(C)(F)CNc1ncc2c(-c3ccc4ncc(C(=O)N5CCCC5)n4c3)ccn2n1` [Compound 74, (6-(2-((2-Fluoro-2-methylpropyl)amino)pyrrolo[2,1-f][1,2,4]triazin-5-yl)imidazo[1,2-a]pyridin-3-yl)(pyrrolidin-1-yl)methanone], for which the pEC50 is 5.29.

Consider `Cc1nc2ccc(-c3ccn4nc(NC5CCOCC5)ncc34)nc2n1CC(C)(C)O` [Compound 1871, 2-Methyl-1-(2-methyl-5-(2-((tetrahydro-2H-pyran-4-yl)amino)pyrrolo[2,1-f][1,2,4]triazin-5-yl)-3H-imidazo[4,5-b]pyridin-3-yl)propan-2-ol], for which the negative logarithm of the EC50 (pEC50) was 7.14.

On to `Cc1nc2ncc(-c3ccn4nc(NC5CCN(CCC(F)(F)F)CC5)ncc34)cc2n1CC(F)F` [Compound 1883, 5-(1-(2,2-Difluoroethyl)-2-methyl-1H-imidazo[4,5-b]pyridin-6-yl)-N-(1-(3,3,3-trifluoropropyl)piperidin-4-yl)pyrrolo[2,1-f][1,2,4]triazin-2-amine], for which the pEC50 is 8.05.

Turning to `CC(C)(CNc1ncc2c(-c3cnc4nccn4c3)ccn2n1)C(F)(F)F` [Compound 221, 5-(Imidazo[1,2-a]pyrimidin-6-yl)-N-(3,3,3-trifluoro-2,2-dimethylpropyl) pyrrolo[2,1-f][1,2,4]triazin-2-amine], the pEC50 is 7.54.

For `Cc1nc2ccc(-c3ccn4nc(N[C@H]5CCN(C)C(=O)C5)ncc34)nc2n1CC(F)F` [Compound 1911, (S)-4-((5-(3-(2,2-Difluoroethyl)-2-methyl-3H-imidazo [4,5-b]pyridin-5-yl)pyrrolo[2,1-f] [1,2,4]triazin-2-yl)amino)-1-methylpiperidin-2-one], the pEC50 was 8.40.

For the compound `FC(F)(F)CNc1ncc2c(-c3cnc4nccn4c3)ccn2n1` [Compound 218, 5-(Imidazo[1,2-a]pyrimidin-6-yl)-N-(2,2,2-trifluoroethyl)pyrrolo[2,1-f] [1,2,4]triazin-2-amine], the pEC50 is 7.89.

For the compound `Cc1nc2ccc(-c3ccn4nc(N[C@H]5CC[C@@H](C(=O)N(C)C)CC5)ncc34)nc2n1CC(F)F` [Compound 1845, cis-4-((5-(3-(2,2-Difluoroethyl)-2-methyl-3H-imidazo[4,5-b]pyridin-5-yl)pyrrolo[2,1-f][1,2,4]triazin-2-yl)amino)-N,N-dimethylcyclohexane-1-carboxamide], the pEC50 was 8.40.

On to `CO[C@H]1CC[C@H](Nc2ncc3c(-c4cnc5nc(C)n(CC(F)F)c5c4)ccn3n2)CC1` [Compound 686, 5-(1-(2,2-Difluoroethyl)-2-methyl-1H-imidazo[4,5-b]pyridin-6-yl)-N-(trans-4-methoxycyclohexyl)pyrrolo[2,1-f][1,2,4]triazin-2-amine], for which the negative-log EC50 (pEC50) was 8.30.

`CC(=O)N[C@]1(C)C[C@@H](Nc2ncc3c(-c4ccn5nccc5c4)ccn3n2)C1` [Compound 1983, N-(trans-1-Methyl-3-((5-(pyrazolo[1,5-a]pyridin-5-yl)pyrrolo[2,1-f][1,2,4]triazin-2-yl)amino)cyclobutyl)acetamide]: the pEC50 was 9.00.

As to `CCc1cnc2ncc(-c3ccn4nc(NCC(C)(C)F)ncc34)cn12` [Compound 429, 5-(3-Ethylimidazo[1,2-a]pyrimidin-6-yl)-N-(2-fluoro-2-methylpropyl) pyrrolo[2,1-f] [1,2,4]triazin-2-amine], the pEC50 is 6.18.

For `Cc1nc2ccc(-c3ccn4nc(N[C@H]5CC[C@@H](OC(F)F)CC5)ncc34)nc2n1CC(F)F` [Compound 1113, N-(cis-4-(Difluoromethoxy)cyclohexyl)-5-(3-(2,2-difluoroethyl)-2-methyl-3H-imidazo[4,5-b]pyridin-5-yl)pyrrolo[2,1-f][1,2,4]triazin-2-amine], the pEC50 is 8.15.

`Cc1nc2ncc(-c3ccn4nc(N[C@H]5C[C@@](C)(O)C5)ncc34)cc2n1CC(F)F` [Compound 1813, cis-3-((5-(1-(2,2-Difluoroethyl)-2-methyl-1H-imidazo [4,5-b]pyridin-6-yl)pyrrolo[2,1-f] [1,2,4]triazin-2-yl)amino)-1-methylcyclobutan-1-ol]: the pEC50 is 8.40.

Take `[2H]C([2H])([2H])O[C@H]1CC[C@@H](Nc2ncc3c(-c4cnc5nc(C)n(CC(F)F)c5c4)ccn3n2)CC1` [Compound 1876]: the pEC50 is 8.70.

With `O[C@H]1C[C@@H](Nc2ncc3c(-c4ccc5ncccc5c4)ccn3n2)C1` [Compound 1723, cis-3-((5-(Quinolin-6-yl)pyrrolo[2,1-f][1,2,4]triazin-2-yl)amino)cyclobutan-1-ol], the pEC50 is 8.40.

Consider `Cc1nc2ccc(-c3ccn4nc(N[C@H]5CN(C)C[C@H]5F)ncc34)nc2n1CC(F)F` [Compound 1903, 5-(3-(2,2-Difluoroethyl)-2-methyl-3H-imidazo[4,5-b]pyridin-5-yl)-N-((3S,4R)-4-fluoro-1-methylpyrrolidin-3-yl)pyrrolo[2,1-f][1,2,4]triazin-2-amine], for which the pEC50 was 7.92.

Turning to `Cc1nc2ccc(-c3ccn4nc(NC5CCN(C(=O)C6CCC(F)(F)CC6)CC5)ncc34)nc2n1CC(F)F` [Compound 1953, (4,4-difluorocyclohexyl)(4-((5-(3-(2,2-difluoroethyl)-2-methyl-3H-imidazo[4,5-b]pyridin-5-yl)pyrrolo[2,1-f][1,2,4]triazin-2-yl)amino)piperidin-1-yl)methanone], the pEC50 is 8.15.

As to “1-(4-((5-(1-(2,2-Difluoroethyl)-2-methyl-1H-imidazo[4,5-b]pyridin-6-yl)pyrrolo[2, 1-f] [1,2,4]triazin-2-yl)amino)piperidin- 1-yl)ethan-1 -one [Compound 1910]”, the pEC50 is 8.40.

As for `Cc1nc2ccc(-c3ccn4nc(NC5CCN(C6COC6)CC5)ncc34)nc2n1CC(F)F` [Compound 1862, 5-(3-(2,2-Difluoroethyl)-2-methyl-3H-imidazo[4,5-b]pyridin-5-yl)-N-(1-(oxetan-3-yl)piperidin-4-yl)pyrrolo[2,1-f][1,2,4]triazin-2-amine], the pEC50 was 8.22.

On to `CC(F)(F)CNc1ncc2c(-c3ccc4nccn4c3)ccn2n1` [Compound 4, N-(2,2-Difluoropropyl)-5-(imidazo [1,2-a]pyridin-6-yl)pyrrolo[2,1-f][1,2,4] triazin-2-amine], for which the pEC50 was 7.14.

For the compound `Cc1nc2ccc(-c3ccn4nc(N[C@@H]5CCN(C6COC6)C[C@@H]5F)ncc34)nc2n1CC(F)F` [Compound 1954, 5-(3-(2,2-Difluoroethyl)-2-methyl-3H-imidazo[4,5-b]pyridin-5-yl)-N-((3 S,4R)-3-fluoro-1-(oxetan-3-yl)piperidin-4-yl)pyrrolo[2,1-f] [1,2,4]triazin-2-amine], the pEC50 was 8.22.

Turning to `Cc1nc2ccc(-c3ccn4nc(N[C@@H]5CCOC[C@H]5F)ncc34)nc2n1CC(F)F` [Compound 1912, 5-(3-(2,2-Difluoroethyl)-2-methyl-3H-imidazo[4,5-b]pyridin-5-yl)-N-((3S,4R)-3-fluorotetrahydro-2H-pyran-4-yl)pyrrolo[2,1-f] [1,2,4]triazin-2-amine], the pEC50 was 8.15.

On to `Cc1nc2ccc(-c3ccn4nc(NC5CC(F)(F)C5)ncc34)nc2n1CC(F)F` [Compound 1088, N-(3,3-Difluorocyclobutyl)-5-(3-(2,2-difluoroethyl)-2-methyl-3H-imidazo [4,5-b]pyridin-5-yl)pyrrolo[2,1-f][1,2,4]triazin-2-amine], for which the pEC50 was 8.40.

In the case of `Cc1nc2ccc(-c3ccn4nc(N[C@H]5C[C@@](C)(O)C5)ncc34)nc2n1CC(F)F` [Compound 1819, cis-3-((5-(3-(2,2-Difluoroethyl)-2-methyl-3H-imidazo [4,5-b]pyridin-5-yl)pyrrolo[2,1-f] [1,2,4]triazin-2-yl)amino)-1-methylcyclobutan-1-ol], the pEC50 was 8.52.
